pIC50: −log10 of the molar value.

Data on 1 compound can be found in US20110264026A1, “Azo Derivatives and Uses Thereof in Phototherapy” (priority 2008, published 2011).

For data set [1], the system named is human myeloid leukemia U937 cell line. Briefly: Cell viability of tumor cells exposed to photosensitizer and electromagnetic radiation. Format: cell-based. The note with it: for viability at 13 µM: 13 μM compound; for viability at 25 µM: 25 μM compound; for viability at 6 µM: 6 μM compound. As to the method:
A general procedure is carried out for measuring cell viability upon exposure of tumor cells to the fused ring diaza compound of Formula (FX33) and electromagnetic radiation. The compound of Formula (FX33) has an absorption maxima (λmax) of 334 nm. The cell viability measurements are carried out using human myeloid leukemia U937 cell line by the standard WST-1 assay. In this procedure, U397 Leukemia cells (0.5×10^6) are plated in standard T-25 cell culture flasks, and are exposed to four controls and a series of test conditions corresponding to a range of fused ring diaza compound concentrations, summarized in Table 1.
The compound of formula (FX33) is dissolved in 20 to 30% DMSO at an initial concentration of 2-4 mM and serially diluted to the final desired value such that the amount of DMSO exposed to the cells is below 0.5%. The cells are incubated at 37° C. with various concentrations of the fused ring diaza compound photosensitizer for about 30 minutes prior to exposure to electromagnetic radiation. […] It should be noted that in the present study, the electromagnetic radiation source is not optimized with respect to power and wavelength. The viability of cells is assessed after 24 hours following exposure to electromagnetic radiation. The electromagnetic radiation source is a B-100SP High Intensity Lamp from UVP. Once exposure is complete, cells are processed to determine percent viability using Hank's Balanced Salt Solution (HBSS), Trypan blue stain, and a hemacytometer to count live and dead cells. The number of viable cells is determined and percent viability is determined using:
FIG. 4 provides cell viability results for test conditions wherein cells are exposed to electromagnetic radiation and the compound of formula (FX33) for concentrations of 6 μM, 13 μM and 25 μM. […] Cells are incubated in the absence of the compound of formula (FX33) (0 μM) and with the compound of formula (FX33) at concentrations of 6 μM, 13 μM and 25 μM. The cells are exposed to electromagnetic radiation from a B-100SP High Intensity Lamp for 0, 5, 10, and 20 minutes. […] In the presence of 13 μM of the diaza compound of formula (FX33), cells have about 94% viability with electromagnetic radiation exposure for 5 minutes, about 95% viability with electromagnetic radiation exposure for 10 minutes, and about 58% viability with electromagnetic radiation exposure for 20 minutes. In the presence of 25 μM of the compound of formula (FX33), cells have about 86% viability with electromagnetic radiation exposure for 5 minutes, about 30% viability with electromagnetic radiation exposure for 10 minutes, and about 8% viability with electromagnetic radiation exposure for 20 minutes.

Data set [2] in a line: Absorption maximum. It counts as physicochemical.
Where [3] appears, read: Homo sapiens, U-937, 5 min, electromagnetic radiation exposure 5 minutes.
Where [4] appears, read: Homo sapiens, U-937, 10 min, electromagnetic radiation exposure 10 minutes.
Where [5] appears, read: Homo sapiens, U-937, 20 min, electromagnetic radiation exposure 20 minutes.

By viability is commonly meant a per cent measure of how many cells are alive, often set against a control. As for `COc1cc2c3c(cc(=O)oc3c1OC)NN=C2` [formula (FX33)], in data set [1] (6, 13 and 25 μM, exposure 0, 5, 10 and 20 minutes), the “effect on cell viability (in words)” value is “concentration-dependent and electromagnetic radiation exposure time-dependent decreases in cell viability”. The results for the viability at 13 µM in data set [1] (setting [3]), in data set [1] (setting [4]) and in data set [1] (setting [5]) were about 94%, about 95% and about 58%, respectively. For the same compound, the viability at 25 µM in data set [1] (setting [3]) was about 86%; in data set [1] (setting [4]) it was about 30%; in data set [1] (setting [5]) it was about 8%. For the same compound, the viability at 6 µM in data set [1] (setting [4]) is 100%; in data set [1] (setting [5]), about 92%; in data set [1] (Homo sapiens, U-937, electromagnetic radiation exposure 5 minutes (B-100SP lamp, 325-425 nm), viability assessed after 24 hours) it was 100%. Further, in data set [1] (Homo sapiens, U-937, 20 min, cells exposed to electromagnetic radiation and photosensitizer for 20 minutes, read-out: VC50/20 (concentration at which 50% decrease in cell viability is observed)), the pIC50 was 5.28. Also, the “absorption maxima (λmax)” value in data set [2] is recorded as 334 nm.
